In ChEMBL document CHEMBL5465560, “Selectivity Literature for EUbOPEN Chemogenomic Library” (2024):
Values belong to the compound of their own block, whether it stands above or below them.

How the values were obtained:
[1] = molecular target: T1, Muscle, skeletal receptor tyrosine-protein kinase (Homo sapiens) (UniProt O15146); assay: Selectivity interaction (Kinase panel (Z-LYTE Assay)) EUB0001632a MUSK; conditions: at 10 µM
T1 sequence (whole entry): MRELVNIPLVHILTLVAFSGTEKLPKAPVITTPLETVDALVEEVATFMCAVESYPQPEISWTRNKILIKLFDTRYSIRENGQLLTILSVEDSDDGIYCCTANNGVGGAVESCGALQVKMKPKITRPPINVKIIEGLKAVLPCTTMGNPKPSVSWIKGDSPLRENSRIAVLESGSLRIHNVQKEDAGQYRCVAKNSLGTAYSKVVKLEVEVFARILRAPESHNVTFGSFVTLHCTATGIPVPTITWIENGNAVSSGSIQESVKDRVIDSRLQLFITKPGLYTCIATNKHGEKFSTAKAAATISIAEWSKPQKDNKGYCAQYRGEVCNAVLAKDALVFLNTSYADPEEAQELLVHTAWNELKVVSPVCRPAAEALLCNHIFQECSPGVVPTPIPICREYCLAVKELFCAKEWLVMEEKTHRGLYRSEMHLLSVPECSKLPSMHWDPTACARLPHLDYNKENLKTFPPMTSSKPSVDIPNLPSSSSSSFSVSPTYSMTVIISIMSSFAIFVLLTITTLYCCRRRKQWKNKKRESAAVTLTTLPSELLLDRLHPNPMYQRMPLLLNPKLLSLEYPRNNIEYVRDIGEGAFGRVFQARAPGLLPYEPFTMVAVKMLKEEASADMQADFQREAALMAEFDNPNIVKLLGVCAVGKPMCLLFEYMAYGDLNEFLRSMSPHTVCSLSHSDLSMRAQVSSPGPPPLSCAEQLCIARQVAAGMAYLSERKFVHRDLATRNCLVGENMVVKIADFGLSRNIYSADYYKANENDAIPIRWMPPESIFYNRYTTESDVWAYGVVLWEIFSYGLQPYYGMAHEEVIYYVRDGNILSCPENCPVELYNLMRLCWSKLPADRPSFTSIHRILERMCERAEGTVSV

[2] = molecular target: Serine/threonine-protein kinase MARK1 (Homo sapiens) (UniProt Q9P0L2); assay: Selectivity interaction (Kinase panel (Z-LYTE Assay)) EUB0001632a MARK1; conditions: at 10 µM
Chain of Serine/threonine-protein kinase MARK1 (Homo sapiens) (Q9P0L2 whole entry, looked up): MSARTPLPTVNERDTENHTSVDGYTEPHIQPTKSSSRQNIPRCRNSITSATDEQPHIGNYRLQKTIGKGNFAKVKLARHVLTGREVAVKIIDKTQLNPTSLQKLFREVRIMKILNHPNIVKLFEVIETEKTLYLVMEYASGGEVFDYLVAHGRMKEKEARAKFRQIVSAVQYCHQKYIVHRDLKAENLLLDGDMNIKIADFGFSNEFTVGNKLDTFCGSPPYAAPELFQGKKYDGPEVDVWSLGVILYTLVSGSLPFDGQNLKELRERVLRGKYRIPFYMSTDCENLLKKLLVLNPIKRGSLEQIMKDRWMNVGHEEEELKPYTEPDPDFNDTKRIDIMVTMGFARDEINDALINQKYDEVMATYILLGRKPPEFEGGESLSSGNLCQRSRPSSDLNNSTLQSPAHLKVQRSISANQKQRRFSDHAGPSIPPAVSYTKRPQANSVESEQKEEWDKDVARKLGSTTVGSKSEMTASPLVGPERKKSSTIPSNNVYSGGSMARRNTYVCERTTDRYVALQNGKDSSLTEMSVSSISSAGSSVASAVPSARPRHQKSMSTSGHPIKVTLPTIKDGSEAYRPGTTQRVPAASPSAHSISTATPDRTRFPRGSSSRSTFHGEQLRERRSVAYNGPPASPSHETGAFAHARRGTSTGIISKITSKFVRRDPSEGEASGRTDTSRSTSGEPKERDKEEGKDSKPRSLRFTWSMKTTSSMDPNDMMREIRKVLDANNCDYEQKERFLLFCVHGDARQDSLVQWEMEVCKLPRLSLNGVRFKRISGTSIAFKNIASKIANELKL

[3] = molecular target: STE20-like serine/threonine-protein kinase (Homo sapiens, UniProt Q9H2G2); assay: Selectivity interaction (KinomeScan (DiscoverX)) EUB0001049a SLK; conditions: at 1 µM
Chain of STE20-like serine/threonine-protein kinase (Q9H2G2 whole entry, looked up): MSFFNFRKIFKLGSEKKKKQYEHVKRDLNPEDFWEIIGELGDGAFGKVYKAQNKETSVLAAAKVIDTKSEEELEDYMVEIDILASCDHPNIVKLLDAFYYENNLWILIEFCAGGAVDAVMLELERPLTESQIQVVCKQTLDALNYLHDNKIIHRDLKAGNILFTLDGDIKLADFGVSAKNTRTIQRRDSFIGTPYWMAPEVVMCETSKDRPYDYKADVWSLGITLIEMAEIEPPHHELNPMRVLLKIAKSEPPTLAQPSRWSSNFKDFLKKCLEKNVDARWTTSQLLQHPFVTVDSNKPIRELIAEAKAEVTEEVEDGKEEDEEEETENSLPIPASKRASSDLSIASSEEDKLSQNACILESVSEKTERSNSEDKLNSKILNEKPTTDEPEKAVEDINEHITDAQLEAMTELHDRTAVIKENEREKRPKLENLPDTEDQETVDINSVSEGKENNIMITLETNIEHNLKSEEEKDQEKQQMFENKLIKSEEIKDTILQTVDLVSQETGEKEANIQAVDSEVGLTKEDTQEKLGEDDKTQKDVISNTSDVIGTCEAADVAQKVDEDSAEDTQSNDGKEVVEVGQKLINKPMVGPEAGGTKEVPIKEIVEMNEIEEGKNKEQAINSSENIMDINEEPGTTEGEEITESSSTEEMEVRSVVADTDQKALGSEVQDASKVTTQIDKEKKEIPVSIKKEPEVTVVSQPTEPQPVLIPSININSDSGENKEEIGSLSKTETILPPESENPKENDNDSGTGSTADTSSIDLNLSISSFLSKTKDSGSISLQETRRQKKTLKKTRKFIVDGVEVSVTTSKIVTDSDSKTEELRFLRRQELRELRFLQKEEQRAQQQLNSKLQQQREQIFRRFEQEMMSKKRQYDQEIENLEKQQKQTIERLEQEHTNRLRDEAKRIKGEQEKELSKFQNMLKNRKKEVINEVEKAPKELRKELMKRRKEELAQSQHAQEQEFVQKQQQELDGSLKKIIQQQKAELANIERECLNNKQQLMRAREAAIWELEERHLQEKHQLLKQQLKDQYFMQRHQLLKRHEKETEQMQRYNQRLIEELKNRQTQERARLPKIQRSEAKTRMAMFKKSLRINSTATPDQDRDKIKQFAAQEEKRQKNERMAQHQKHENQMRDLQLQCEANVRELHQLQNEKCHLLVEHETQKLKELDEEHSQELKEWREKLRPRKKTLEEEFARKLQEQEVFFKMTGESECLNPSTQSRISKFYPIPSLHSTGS

[4] = molecular target: Fibroblast growth factor receptor 3 (Homo sapiens, UniProt P22607); assay: Selectivity interaction (ProQinase) EUB0000171b FGFR3; conditions: at 1 µM
Chain of Fibroblast growth factor receptor 3 (P22607 23-806 limits assumed): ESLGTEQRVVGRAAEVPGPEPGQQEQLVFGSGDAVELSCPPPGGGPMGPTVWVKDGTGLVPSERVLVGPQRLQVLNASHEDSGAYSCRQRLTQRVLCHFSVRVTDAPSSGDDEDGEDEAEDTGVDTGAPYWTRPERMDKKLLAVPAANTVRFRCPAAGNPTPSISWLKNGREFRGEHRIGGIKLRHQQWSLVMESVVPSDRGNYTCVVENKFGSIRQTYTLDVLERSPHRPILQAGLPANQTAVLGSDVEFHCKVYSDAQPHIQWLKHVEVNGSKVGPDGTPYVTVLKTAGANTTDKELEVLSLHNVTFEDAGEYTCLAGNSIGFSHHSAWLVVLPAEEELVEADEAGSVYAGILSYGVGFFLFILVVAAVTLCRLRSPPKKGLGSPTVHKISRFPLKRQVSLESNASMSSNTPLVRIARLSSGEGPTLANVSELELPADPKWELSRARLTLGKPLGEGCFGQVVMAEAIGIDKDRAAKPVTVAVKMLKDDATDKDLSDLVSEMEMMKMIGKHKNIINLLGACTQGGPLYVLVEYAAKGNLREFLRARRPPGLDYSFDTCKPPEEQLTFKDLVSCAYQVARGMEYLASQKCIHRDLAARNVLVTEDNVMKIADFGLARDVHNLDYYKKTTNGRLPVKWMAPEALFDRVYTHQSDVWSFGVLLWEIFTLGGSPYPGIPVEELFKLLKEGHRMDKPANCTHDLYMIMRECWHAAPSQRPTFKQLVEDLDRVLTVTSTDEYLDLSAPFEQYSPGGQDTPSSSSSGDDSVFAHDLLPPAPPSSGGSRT

[5] = molecular target: Serine/threonine-protein kinase 10 (Homo sapiens) (UniProt O94804); assay: Selectivity interaction (KinomeScan (DiscoverX)) EUB0001619a STK10; conditions: at 1 µM
Chain of Serine/threonine-protein kinase 10 (Homo sapiens) (O94804 whole entry, looked up): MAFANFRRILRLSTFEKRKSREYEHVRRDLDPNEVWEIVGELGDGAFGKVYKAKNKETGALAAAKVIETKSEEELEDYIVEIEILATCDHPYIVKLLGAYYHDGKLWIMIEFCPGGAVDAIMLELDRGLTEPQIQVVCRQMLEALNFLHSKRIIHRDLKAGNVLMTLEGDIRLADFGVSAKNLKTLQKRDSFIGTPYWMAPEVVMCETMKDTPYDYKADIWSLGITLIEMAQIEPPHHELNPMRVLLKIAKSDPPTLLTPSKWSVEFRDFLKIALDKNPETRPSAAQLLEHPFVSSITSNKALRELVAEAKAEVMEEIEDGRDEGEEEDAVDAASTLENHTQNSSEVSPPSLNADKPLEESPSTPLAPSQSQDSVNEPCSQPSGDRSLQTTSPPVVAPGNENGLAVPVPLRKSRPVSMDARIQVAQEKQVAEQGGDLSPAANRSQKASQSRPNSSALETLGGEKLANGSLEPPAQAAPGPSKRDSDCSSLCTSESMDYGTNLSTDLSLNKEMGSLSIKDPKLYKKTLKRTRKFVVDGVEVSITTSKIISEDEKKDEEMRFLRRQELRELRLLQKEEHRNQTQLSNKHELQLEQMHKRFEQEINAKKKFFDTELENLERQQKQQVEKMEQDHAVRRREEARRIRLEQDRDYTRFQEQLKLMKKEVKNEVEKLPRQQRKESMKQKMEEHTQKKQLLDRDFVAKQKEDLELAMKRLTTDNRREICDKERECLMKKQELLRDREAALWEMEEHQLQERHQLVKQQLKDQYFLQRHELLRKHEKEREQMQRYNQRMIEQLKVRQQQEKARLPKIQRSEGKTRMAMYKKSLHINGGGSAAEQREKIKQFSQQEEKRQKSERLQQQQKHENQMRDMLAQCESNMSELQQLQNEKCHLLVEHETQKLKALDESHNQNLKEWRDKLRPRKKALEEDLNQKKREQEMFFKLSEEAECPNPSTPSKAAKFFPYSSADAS

[6] = molecular target: T2, Dual specificity mitogen-activated protein kinase kinase 4 (Homo sapiens) (UniProt P45985); assay: Selectivity interaction (KinomeScan (DiscoverX)) EUB0000618a MAP2K4; conditions: at 10 µM
T2 sequence (whole entry): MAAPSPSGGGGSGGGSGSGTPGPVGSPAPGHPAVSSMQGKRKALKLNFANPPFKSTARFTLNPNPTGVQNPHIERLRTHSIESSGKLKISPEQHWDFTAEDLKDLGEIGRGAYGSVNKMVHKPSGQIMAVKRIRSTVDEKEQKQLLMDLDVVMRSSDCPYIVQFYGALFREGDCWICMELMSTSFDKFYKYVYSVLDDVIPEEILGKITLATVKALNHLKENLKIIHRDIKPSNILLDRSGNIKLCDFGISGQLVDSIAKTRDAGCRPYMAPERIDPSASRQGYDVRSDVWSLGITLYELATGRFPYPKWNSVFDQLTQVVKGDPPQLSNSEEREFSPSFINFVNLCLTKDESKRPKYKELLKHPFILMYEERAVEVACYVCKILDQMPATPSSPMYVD

[7] = tested on: T3, Receptor-type tyrosine-protein kinase FLT3 (Homo sapiens), P36888 [D835H]; conditions: at 10 µM
T3 sequence (whole entry): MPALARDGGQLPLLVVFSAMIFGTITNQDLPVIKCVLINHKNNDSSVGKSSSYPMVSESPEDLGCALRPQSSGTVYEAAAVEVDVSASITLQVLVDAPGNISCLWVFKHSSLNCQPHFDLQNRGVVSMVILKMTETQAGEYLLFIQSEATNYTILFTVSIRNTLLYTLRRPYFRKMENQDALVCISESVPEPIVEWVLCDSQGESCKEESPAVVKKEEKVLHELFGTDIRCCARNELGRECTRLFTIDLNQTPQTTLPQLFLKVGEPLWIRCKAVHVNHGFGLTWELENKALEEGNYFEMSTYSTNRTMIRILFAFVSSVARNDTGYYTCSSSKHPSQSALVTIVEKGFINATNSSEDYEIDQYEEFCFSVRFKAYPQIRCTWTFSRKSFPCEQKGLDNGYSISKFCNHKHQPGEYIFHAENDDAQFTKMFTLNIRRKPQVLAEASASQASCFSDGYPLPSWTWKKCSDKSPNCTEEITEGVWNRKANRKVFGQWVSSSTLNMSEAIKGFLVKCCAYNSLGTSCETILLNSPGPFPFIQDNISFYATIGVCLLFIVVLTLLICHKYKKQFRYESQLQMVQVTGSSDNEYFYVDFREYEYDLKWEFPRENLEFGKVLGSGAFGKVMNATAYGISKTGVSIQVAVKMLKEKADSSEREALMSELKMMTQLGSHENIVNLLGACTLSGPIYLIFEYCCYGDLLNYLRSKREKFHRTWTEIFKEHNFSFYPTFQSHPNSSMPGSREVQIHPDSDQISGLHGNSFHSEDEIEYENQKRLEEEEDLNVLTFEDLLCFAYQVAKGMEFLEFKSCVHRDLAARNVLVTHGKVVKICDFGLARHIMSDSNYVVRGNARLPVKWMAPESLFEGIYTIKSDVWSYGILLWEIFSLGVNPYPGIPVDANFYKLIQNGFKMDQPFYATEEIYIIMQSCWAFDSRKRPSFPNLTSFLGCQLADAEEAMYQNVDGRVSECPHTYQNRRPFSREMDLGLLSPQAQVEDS

Structure (SMILES): COc1cc(Nc2nc(C)cc(-c3cnn4nc(OC)ccc34)n2)cc(C(F)(F)F)c1
- % of control [3]: 88%

Structure (SMILES): N#Cc1cccc(-c2c[nH]c3ncnc(N4CCOCC4)c23)c1
- % of control [5]: 33%

Structure (SMILES): O[C@H]1CC[C@H](Nc2ncc3nc(Nc4c(F)cc(F)cc4F)n([C@H]4CCOC4)c3n2)CC1
- % of control [6]: 27%

Continued, values first:

- % of control [1]: 12.7%
- % of control [2]: 3.94%
Structure (SMILES): Cn1cc(-n2cnc3c(NCc4nc5cc(Cl)c(Cl)cc5[nH]4)nc(N4CCOCC4)nc32)cn1

- % of control [4]: 88%
Structure (SMILES): C=CC(=O)Nc1cccc(C(=O)Nc2ccc(Nc3cc(-c4[nH]c(SC)nc4C)ccn3)cc2)c1

- % of control [7]: 100%
Structure (SMILES): CCN(CC)CCCCNc1ncc2cc(-c3cc(OC)cc(OC)c3)c(NC(=O)NC(C)(C)C)nc2n1
